In patent EP2406206B1, “TETRAHYDRONAPHTHALEN-2-OL DERIVATIVES” (MSD Oss B.V., priority 2009, dated 2010):

Tests used:
[1] = target: human estrogen receptor β receptor (hERβ) (Homo sapiens, UniProt Q92731); assay: ERβ transactivation bioassay in recombinant CHO cells (rat oxytocin promoter, luciferase reporter); assay type: cell-based; settings: for ERβ/ERα ratio: ERβ agonistic selectivity over ERα, transactivation data; for EC50: transactivation of luciferase via hERβ in CHO cells, read-out: ERβ agonistic EC50; for ERβ eudismic ratio: ratio of the activities of the eutomer and the distomer on ERβ
human estrogen receptor β receptor (hERβ), sequence (Q92731 whole entry): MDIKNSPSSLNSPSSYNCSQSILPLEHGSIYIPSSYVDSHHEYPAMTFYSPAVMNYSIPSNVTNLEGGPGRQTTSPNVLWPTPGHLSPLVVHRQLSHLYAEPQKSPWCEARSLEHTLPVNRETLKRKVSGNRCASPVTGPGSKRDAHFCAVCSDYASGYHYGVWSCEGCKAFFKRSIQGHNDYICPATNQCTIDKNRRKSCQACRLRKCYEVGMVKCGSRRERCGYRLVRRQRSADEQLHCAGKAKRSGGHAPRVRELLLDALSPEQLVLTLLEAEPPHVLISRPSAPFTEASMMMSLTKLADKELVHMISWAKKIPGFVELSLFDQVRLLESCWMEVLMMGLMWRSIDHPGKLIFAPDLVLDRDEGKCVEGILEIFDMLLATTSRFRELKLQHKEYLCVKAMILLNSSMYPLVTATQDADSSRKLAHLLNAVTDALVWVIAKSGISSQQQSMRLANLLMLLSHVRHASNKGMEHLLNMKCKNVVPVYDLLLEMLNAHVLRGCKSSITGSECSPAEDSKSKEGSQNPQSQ
Protocol: (§1) The estrogenic and antiestrogenic activity of compounds was determined in an in vitro bioassay with recombinant Chinese hamster ovary (CHO) cells stably co-transfected with the human estrogen receptor α (hERα) or β receptor (hERβ), the rat oxytocin promoter (RO) and the luciferase reporter gene (LUC). The estrogenic activity of a test compound to stimulate the transactivation of the enzyme luciferase mediated via the estrogen receptors hERα or hERβ is expressed in nM. The assay was performed as described by De Gooyer et al., Steroids 68 (2003), 21-30. Table 7. ERβ and ERα transactivation data

[2] = metabolic stability in human hepatocytes; assay type: in vitro ADME; settings: cryopreserved human hepatocytes in suspension, tetrahydronaphthalen-2-ol, 37°C, sampled 0-120 min, LC-MS/MS, read-out: Human hepatocyte T1/2
Protocol: A number of compounds 9, 11 and 12 were tested on metabolic stability in human hepatocytes. The hepatic stability was compared to corresponding chroman compounds 25, 26 or 27 (see structures below).
Test compounds were diluted to 3 µM in incubation medium. Then 40 µl of the 3 µM test compounds was pipetted into a 96 well microtiter plate (flat bottom). Hepatocytes (stored at -140 °C) were thawed in a 37°C water bath. The cells were resuspended into pre-warmed thawing medium and were centrifuged for 5 minutes at 50g at room temperature. The supernatant was discarded and the remaining cell pellet was resuspended in warm incubation medium and diluted to 7.5 E5 cells/ml. Then 80 µl of the cell suspension was added to each well of the 96 well microtiter plate containing the test compounds. The resulting mixture was incubated at 37°C and was sampled at t=0, 5, 30, 60, and 120 min. The samples were analyzed by LC-MS/MS to determine the content of unchanged test compound. Based on the rate of reduction of the content of test compound over time, the half-live (T1/2) was calculated. Metabolic stability in human hepatocytes

[3] = target: T1, human estrogen receptor α (hERα) (Homo sapiens, UniProt P03372); assay: ERα transactivation bioassay in recombinant CHO cells (rat oxytocin promoter, luciferase reporter); assay type: cell-based; settings: ratio of the activities of the eutomer and the distomer on ERα
T1 sequence (P03372 1-595): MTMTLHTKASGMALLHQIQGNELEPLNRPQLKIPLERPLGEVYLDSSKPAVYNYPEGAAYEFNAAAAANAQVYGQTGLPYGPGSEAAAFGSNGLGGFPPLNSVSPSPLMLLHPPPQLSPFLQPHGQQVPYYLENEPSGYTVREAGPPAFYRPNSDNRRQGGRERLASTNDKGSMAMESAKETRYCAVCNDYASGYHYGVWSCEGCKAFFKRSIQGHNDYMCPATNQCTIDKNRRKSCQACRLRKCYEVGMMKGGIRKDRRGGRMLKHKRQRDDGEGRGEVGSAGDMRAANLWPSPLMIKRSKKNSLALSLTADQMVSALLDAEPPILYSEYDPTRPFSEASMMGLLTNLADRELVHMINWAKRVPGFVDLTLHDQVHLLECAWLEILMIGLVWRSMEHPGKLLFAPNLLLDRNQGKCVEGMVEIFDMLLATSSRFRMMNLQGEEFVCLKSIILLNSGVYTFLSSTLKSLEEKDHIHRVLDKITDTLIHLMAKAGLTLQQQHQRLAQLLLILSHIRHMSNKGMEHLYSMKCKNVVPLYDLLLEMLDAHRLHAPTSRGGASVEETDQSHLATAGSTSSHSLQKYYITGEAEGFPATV
Protocol: as §1

SMILES	ERβ/ERα ratio [1]	EC50 [1] [pM]	half-life at 1 µM [2] [h]	ERβ eudismic ratio [1]	ERα eudismic ratio [3]
CC1C(c2ccc(O)cc2)Cc2ccc(O)cc2C1Cc1ccccc1F (racemic) [Compound 9a, 8-(2-fluorobenzyl)-6-(4-hydroxyphenyl)-7-methyl-5,6,7,8-tetrahydronaphthalen-2-ol]	193	450			
CCC1C(c2ccc(O)cc2)Cc2ccc(O)cc2C1Cc1ccccc1F (racemic) [Compound 9b, 8-(2-fluorobenzyl)-6-(4-hydroxyphenyl)-7-ethyl-5,6,7,8-tetrahydronaphthalen-2-ol]	77	350	1.17		
CCCC1C(c2ccc(O)cc2)Cc2ccc(O)cc2C1Cc1ccccc1F (racemic) [Compound 9c, 8-(2-fluorobenzyl)-6-(4-hydroxyphenyl)-7-propyl-5,6,7,8-tetrahydronaphthalen-2-ol]	33	400			
CC1C(c2ccc(O)cc2)Cc2ccc(O)cc2C1Cc1ccccc1 (racemic) [Compound 9d, 8-benzyl-6-(4-hydroxyphenyl)-7-methyl-5,6,7,8-tetrahydronaphthalen-2-ol]	51	680			
CCC1C(c2ccc(O)cc2)Cc2ccc(O)cc2C1Cc1ccccc1 (racemic) [Compound 9e, 8-benzyl-7-ethyl-6-(4-hydroxyphenyl)-5,6,7,8-tetrahydronaphthalen-2-ol]	18	420			
CC1C(c2ccc(O)cc2)Cc2ccc(O)cc2C1Cc1cccc(F)c1 (racemic) [Compound 9f, 8-(3-fluorobenzyl)-6-(4-hydroxyphenyl)-7-methyl-5,6,7,8-tetrahydronaphthalen-2-ol]	>33	3000			
CC1C(c2ccc(O)cc2)Cc2ccc(O)cc2C1Cc1ccc(F)cc1 (racemic) [Compound 9g, 8-(4-fluorobenzyl)-6-(4-hydroxyphenyl)-7-methyl-5,6,7,8-tetrahydronaphthalen-2-ol]	>43	2300			
CC1C(c2ccc(O)cc2)Cc2ccc(O)cc2C1Cc1cc(F)ccc1F (racemic) [Compound 9h, 8-(2,5-difluorobenzyl)-6-(4-hydroxyphenyl)-7-methyl-5,6,7,8-tetrahydronaphthalen-2-ol]	>167	600			
CC1C(c2ccc(O)cc2)Cc2ccc(O)cc2C1Cc1c(F)cccc1F (racemic) [Compound 9i, 8-(2,6-difluorobenzyl)-6-(4-hydroxyphenyl)-7-methyl-5,6,7,8-tetrahydronaphthalen-2-ol]	>102	980			
CC1C(c2ccc(O)cc2)Cc2ccc(O)cc2C1Cc1ccccc1C#N (racemic) [Compound 9j, 2-((7-hydroxy-3-(4-hydroxyphenyl)-2-methyl-1,2,3,4-tetrahydronaphthalen-1-yl)methyl)benzonitrile]	605	560	0.623		
CCC1C(c2ccc(O)cc2)Cc2ccc(O)cc2C1Cc1ccccc1C#N (racemic) [Compound 9k, 2-((2-ethyl-7-hydroxy-3-(4-hydroxyphenyl)-1,2,3,4-tetrahydronaphthalen-1-yl)methyl)benzonitrile]	>204	490			
CC1C(c2ccc(O)cc2)Cc2ccc(O)cc2C1Cc1ccccc1Cl (racemic) [Compound 9l, 8-(2-chlorobenzyl)-6-(4-hydroxyphenyl)-7-methyl-5,6,7,8-tetrahydronaphthalen-2-ol]	339	330			
CCC1C(c2ccc(O)cc2)Cc2ccc(O)cc2C1Cc1ccc(O)cc1 (racemic) [Compound 9m, 7-ethyl-8-(4-hydroxybenzyl)-6-(4-hydroxyphenyl)-5,6,7,8-tetrahydronaphthalen-2-ol]	2	31000			
CCC1C(c2ccc(O)cc2F)Cc2ccc(O)cc2C1Cc1ccccc1F (racemic) [Compound 9o, 7-ethyl-6-(2-fluoro-4-hydroxyphenyl)-8-(2-fluorobenzyl)-5,6,7,8-tetrahydronaphthalen-2-ol]	42	170	1.22		
CC1C(c2ccc(O)cc2F)Cc2ccc(O)cc2C1Cc1ccccc1F (racemic) [Compound 9p, 6-(2-fluoro-4-hydroxyphenyl)-8-(2-fluorobenzyl)-7-methyl-5,6,7,8-tetrahydronaphthalen-2-ol]	>333	300	> 2		
Cc1cc(C2Cc3ccc(O)cc3C(Cc3ccccc3F)C2C)ccc1O (racemic) [Compound 9r, 8-(2-fluorobenzyl)-6-(4-hydroxy-3-methylphenyl)-7-methyl-5,6,7,8-tetrahydronaphthalen-2-ol]	>83	1200	0.965		
CC1C(c2ccc(O)cc2)Cc2ccc(O)c(F)c2C1Cc1ccccc1F (racemic) [Compound 9s, 1-fluoro-8-(2-fluorobenzyl)-5,6,7,8-tetrahydro-6-(4-hydroxyphenyl)-7-methylnaphthalen-2-ol]	>21	4700	1.61		
CCC1C(c2ccc(O)cc2)Cc2ccc(O)cc2C1Cc1ccccc1C (racemic) [Compound 9v, 7-ethyl-6-(4-hydroxyphenyl)-8-(2-methylbenzyl)-5,6,7,8-tetrahydronaphthalen-2-ol]	>63	1600	1.16		
CCC1C(c2ccc(O)cc2)Cc2ccc(O)cc2C1Cc1ccc(F)cc1 (racemic) [Compound 9w, 7-ethyl-8-(4-fluorobenzyl)-6-(4-hydroxyphenyl)-5,6,7,8-tetrahydronaphthalen-2-ol]	12	910			
CC1C(c2ccc(O)cc2)Cc2ccc(O)c(F)c2C1Cc1c(F)cccc1F (racemic) [Compound 9y, 8-(2,6-difluorobenzyl)-1-fluoro-5,6,7,8-tetrahydro-6-(4-hydroxyphenyl)-7-methyl-naphthalen-2-ol]	>8	12000	1.83		
C[C@H]1[C@@H](c2ccc(O)cc2)Cc2ccc(O)cc2[C@H]1Cc1cccc(F)c1 (single isomer, unassigned) [Compound 11f]	21	1200		13	>4
C[C@H]1[C@@H](c2ccc(O)cc2)Cc2ccc(O)cc2[C@H]1Cc1ccc(F)cc1 (single isomer, unassigned) [Compound 11g]	19	1400		9	>4
C[C@H]1[C@@H](c2ccc(O)cc2)Cc2ccc(O)cc2[C@H]1Cc1c(F)cccc1F (single isomer, unassigned) [Compound 11i]	>213	470		>212	
C[C@H]1[C@@H](c2ccc(O)cc2)Cc2ccc(O)cc2[C@H]1Cc1ccccc1C#N (single isomer, unassigned) [Compound 11j]	>714	140	0.49	143	
CC[C@H]1[C@@H](c2ccc(O)cc2)Cc2ccc(O)cc2[C@H]1Cc1ccc(F)cc1 (single isomer, unassigned) [Compound 11w]	61	360		42	0.4
C[C@@H]1[C@H](c2ccc(O)cc2)Cc2ccc(O)cc2[C@@H]1Cc1ccccc1F (single isomer, unassigned) [Compound 12a]			1.11		
C[C@@H]1[C@H](c2ccc(O)cc2)Cc2ccc(O)cc2[C@@H]1Cc1c(F)cccc1F (single isomer, unassigned) [Compound 12i]			1.12		
COc1ccccc1CC1c2cc(O)ccc2CC(c2ccc(O)cc2)C1C (centres unmarked) [Compound 8n, 6-(4-hydroxyphenyl)-8-(2-methoxybenzyl)-7-methyl-5,6,7,8-tetrahydronaphthalen-2-ol]	>40	2500			
